pIC50: −log10 of the molar value.
Key:
[1] = target: T1, Citron Rho-interacting kinase (Homo sapiens, UniProt O14578)
[2] = target: T1, Citron Rho-interacting kinase; assay: Binding affinity to NanoLuc fused-CITK (unknown origin) expressed in HEK293T cells assessed as dissociation constant NanoBRET Target Engagement Intracellular Kinase Assay; type: cell-based
[3] = target: T1, Citron Rho-interacting kinase; assay: Binding affinity to NanoLuc fused-CITK kinase domain (unknown origin) expressed in HEK293T cells assessed as dissociation constant NanoBRET Target Engagement Intracellular Kinase Assay; type: cell-based
COLO 205 = assay: Antiproliferative activity against human COLO 205 Panel cells assessed as cell viability incubated for 48 hrs by CellTiter-Glo cell viability assay; type: functional
[4] = Cmax in CD-1 disease model mouse brain at 30 mg/kg, po measured after 24 hrs; type: ADME, organism-based; settings: CD-1, mouse
[5] = Cmax in CD-1 disease model mouse plasma at 30 mg/kg, po measured after 24 hrs; type: ADME, organism-based; settings: CD-1, mouse
[6] = AUC in Sprague-Dawley rat at 10 mg/kg, po measured upto 24 hrs; type: ADME, organism-based; settings: in vivo
[7] = Volume of distribution at steady state in Sprague-Dawley rat at 1 mg/kg, iv measured upto 24 hrs; type: ADME, organism-based; settings: in vivo, read-out: Vdss
[8] = tested on: Panel NCI-60 (60 carcinoma cell lines); assay: Antiproliferative activity against human Panel NCI-60 (60 carcinoma cell lines) assessed as cell viability incubated for 48 hrs by CellTiter-Glo cell viability assay; type: functional
[9] = Plasma clearance in Sprague-Dawley rat at 1 mg/kg, iv measured upto 24 hrs; type: ADME, organism-based
[10] = AUC in CD-1 disease model mouse brain at 30 mg/kg, po measured after 24 hrs; type: ADME, organism-based; settings: CD-1, mouse
[11] = Unbound fraction in human plasma measured after 4.5 hrs by LC-MS/MS analysis; type: ADME, cell-free
CYP2D6 = CYP2D6 (Homo sapiens, UniProt P10635); assay: Inhibition of CYP2D6 (unknown origin) at 10 uM by LC/MS/MS analysis relative to control; type: ADME
Chain of CYP2D6 (P10635 whole entry): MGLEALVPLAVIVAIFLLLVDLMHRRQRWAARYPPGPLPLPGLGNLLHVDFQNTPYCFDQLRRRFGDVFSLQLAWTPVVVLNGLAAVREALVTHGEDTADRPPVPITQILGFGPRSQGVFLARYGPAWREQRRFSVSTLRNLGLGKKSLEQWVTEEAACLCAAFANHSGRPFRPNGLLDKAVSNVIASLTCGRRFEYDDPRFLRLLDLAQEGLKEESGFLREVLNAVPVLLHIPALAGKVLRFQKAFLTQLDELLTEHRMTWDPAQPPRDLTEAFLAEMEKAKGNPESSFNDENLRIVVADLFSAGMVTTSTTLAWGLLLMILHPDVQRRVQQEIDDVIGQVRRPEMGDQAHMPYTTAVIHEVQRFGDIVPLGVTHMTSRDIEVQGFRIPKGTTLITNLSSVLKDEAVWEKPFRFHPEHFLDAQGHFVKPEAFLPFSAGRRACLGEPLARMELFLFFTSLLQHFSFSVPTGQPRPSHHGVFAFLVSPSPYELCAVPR

[12] = Apparent permeability across apical to basolateral side in dog MDCK cells incubated for 1 hr by LCMS analysis; type: ADME, cell-based, Canis lupus familiaris
CYP2C9 = CYP2C9 (Homo sapiens, UniProt P11712); assay: Inhibition of CYP2C9 (unknown origin) at 10 uM by LC/MS/MS analysis relative to control; type: ADME
Chain of CYP2C9 (P11712 whole entry): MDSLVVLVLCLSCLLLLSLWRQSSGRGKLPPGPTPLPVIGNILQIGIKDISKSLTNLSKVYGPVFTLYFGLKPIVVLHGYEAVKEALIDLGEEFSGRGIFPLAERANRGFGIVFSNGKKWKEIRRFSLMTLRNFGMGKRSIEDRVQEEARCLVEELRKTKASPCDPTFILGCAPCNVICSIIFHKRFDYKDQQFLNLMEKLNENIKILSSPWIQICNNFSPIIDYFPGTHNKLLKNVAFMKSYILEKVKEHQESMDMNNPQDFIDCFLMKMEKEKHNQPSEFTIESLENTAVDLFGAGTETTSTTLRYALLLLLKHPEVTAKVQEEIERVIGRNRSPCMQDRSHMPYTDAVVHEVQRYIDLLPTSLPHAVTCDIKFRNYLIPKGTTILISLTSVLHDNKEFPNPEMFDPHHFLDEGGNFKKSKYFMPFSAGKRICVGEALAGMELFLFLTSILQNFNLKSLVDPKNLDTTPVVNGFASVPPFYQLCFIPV

CYP3A4 = CYP3A4 (Homo sapiens, UniProt P08684); assay: Inhibition of CYP3A4 (unknown origin) at 10 uM by LC/MS/MS analysis relative to control; type: ADME
Chain of CYP3A4 (P08684 whole entry): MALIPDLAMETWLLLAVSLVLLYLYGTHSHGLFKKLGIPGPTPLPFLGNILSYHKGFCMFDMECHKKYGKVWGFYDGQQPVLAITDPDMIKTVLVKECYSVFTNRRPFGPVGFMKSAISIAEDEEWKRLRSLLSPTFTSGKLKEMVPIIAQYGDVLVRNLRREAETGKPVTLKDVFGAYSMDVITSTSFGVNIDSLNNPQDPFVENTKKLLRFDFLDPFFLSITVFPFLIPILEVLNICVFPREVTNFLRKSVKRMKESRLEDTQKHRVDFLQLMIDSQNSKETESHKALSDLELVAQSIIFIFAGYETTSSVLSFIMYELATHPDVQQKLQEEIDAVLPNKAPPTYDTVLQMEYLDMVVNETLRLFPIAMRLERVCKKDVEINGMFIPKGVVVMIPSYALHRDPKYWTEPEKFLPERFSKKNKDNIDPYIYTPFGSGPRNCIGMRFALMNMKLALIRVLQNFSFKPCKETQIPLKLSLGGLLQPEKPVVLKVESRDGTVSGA

[13] = Unbound fraction in rat plasma measured after 4.5 hrs by LC-MS/MS analysis; type: ADME, cell-free
[14] = Half life in Sprague-Dawley rat at 1 mg/kg, iv measured upto 24 hrs; type: ADME, organism-based; settings: in vivo
[15] = Half life in Sprague-Dawley rat at 10 mg/kg, po measured upto 24 hrs; type: ADME, organism-based; settings: in vivo
786-0 = assay: Antiproliferative activity against human 786-0 Panel cells assessed as cell viability incubated for 48 hrs by CellTiter-Glo cell viability assay; type: functional
Hs-578T = assay: Antiproliferative activity against human Hs-578T cells assessed as cell viability incubated for 48 hrs by CellTiter-Glo cell viability assay; type: functional
[16] = Oral bioavailability in Sprague-Dawley rat at 10 mg/kg measured upto 24 hrs; type: ADME, organism-based; settings: in vivo
[17] = AUC in Sprague-Dawley rat at 1 mg/kg, iv measured upto 24 hrs; type: ADME, organism-based; settings: in vivo
[18] = AUC in CD-1 disease model mouse plasma at 30 mg/kg, po measured after 24 hrs; type: ADME, organism-based; settings: CD-1, mouse
[19] = Cmax in Sprague-Dawley rat at 10 mg/kg, po measured upto 24 hrs; type: ADME, organism-based; settings: in vivo
[20] = Cmax in Sprague-Dawley rat at 1 mg/kg, iv measured upto 24 hrs; type: ADME, organism-based; settings: in vivo
JVM-3 = assay: Antiproliferative activity against human JVM-3 cells assessed as cell viability by standard PRISM assay; type: functional, cell-based

T1 sequence (O14578 whole entry, the tested form may be a part): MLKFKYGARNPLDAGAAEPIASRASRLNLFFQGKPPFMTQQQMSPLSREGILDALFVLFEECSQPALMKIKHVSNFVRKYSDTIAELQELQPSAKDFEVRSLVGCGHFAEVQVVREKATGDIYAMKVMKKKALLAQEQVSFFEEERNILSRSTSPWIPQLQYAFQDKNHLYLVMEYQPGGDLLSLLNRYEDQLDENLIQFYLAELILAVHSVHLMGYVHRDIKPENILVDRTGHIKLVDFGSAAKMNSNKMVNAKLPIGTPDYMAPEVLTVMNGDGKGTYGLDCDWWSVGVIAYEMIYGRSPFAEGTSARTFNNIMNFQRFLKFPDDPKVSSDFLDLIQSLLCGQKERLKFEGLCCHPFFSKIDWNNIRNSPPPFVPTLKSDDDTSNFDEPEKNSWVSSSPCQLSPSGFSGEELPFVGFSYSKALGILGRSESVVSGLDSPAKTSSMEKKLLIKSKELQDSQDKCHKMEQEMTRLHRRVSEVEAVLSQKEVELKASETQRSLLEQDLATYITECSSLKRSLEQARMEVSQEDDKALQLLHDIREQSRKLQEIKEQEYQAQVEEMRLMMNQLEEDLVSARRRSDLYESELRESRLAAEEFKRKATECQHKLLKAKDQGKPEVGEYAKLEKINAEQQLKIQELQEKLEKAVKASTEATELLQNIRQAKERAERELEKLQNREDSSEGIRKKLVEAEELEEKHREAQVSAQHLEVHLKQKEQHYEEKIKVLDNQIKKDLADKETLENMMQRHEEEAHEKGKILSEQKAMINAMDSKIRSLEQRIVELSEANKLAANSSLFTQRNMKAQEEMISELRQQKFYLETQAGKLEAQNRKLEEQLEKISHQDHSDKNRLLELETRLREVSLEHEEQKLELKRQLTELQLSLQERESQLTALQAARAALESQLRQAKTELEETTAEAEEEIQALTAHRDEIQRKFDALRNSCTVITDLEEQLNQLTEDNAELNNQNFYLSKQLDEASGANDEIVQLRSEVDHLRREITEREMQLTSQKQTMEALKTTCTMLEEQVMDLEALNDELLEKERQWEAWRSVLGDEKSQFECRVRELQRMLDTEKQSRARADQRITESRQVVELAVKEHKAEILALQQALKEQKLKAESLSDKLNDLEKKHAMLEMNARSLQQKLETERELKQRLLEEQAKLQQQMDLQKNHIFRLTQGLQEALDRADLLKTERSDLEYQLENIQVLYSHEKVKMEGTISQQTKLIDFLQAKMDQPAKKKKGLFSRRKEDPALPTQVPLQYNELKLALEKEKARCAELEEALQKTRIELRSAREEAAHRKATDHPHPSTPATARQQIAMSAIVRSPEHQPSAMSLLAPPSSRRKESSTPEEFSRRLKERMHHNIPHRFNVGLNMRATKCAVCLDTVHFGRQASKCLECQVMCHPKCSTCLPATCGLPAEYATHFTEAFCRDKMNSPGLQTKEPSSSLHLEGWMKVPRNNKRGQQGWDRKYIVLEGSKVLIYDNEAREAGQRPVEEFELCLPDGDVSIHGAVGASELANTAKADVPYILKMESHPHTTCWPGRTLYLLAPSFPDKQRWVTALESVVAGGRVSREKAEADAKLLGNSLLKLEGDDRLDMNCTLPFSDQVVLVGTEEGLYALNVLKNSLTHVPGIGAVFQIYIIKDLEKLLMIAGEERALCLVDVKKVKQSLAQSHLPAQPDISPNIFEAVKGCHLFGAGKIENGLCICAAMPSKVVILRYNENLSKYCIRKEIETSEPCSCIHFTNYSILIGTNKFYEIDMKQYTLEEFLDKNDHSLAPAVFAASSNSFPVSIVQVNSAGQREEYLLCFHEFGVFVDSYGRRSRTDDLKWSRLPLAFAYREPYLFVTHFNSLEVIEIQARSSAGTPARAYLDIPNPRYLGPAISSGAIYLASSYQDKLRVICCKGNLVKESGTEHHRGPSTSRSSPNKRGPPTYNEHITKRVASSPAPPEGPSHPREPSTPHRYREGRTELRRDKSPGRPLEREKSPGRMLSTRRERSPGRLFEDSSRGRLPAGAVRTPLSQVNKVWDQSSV

Cc1cc2c(-c3ccc(NC(=O)[C@H](N)CC(C)(C)C)cc3C)cncc2[nH]1
pIC50 [1]: < 4.52 | Kd [2]: Not Active | Kd [3]: Not Active

CC(N)c1ccc(-c2ccnc3[nH]ccc23)cc1 (centres undefined)
pIC50 [1]: 6.30

Cc1cc2c(-c3ccc(NC(=O)[C@H](N)CC(C)(C)C)cc3C)ccnc2[nH]1
GI50 (COLO 205): < 2 µM | Cmax [4]: 1.02 µM | Cmax [5]: 12.9 µM | AUC [6]: 7.3 µM·h | Vd [7]: 0.91 L/kg | GI50 [8]: 7 µM | clearance [9]: 0.264 L/h/kg | AUC at 24 h [10]: 7.71 µM·h | Fu [11]: 0.52% | inhibition at 10 µM (CYP2D6): 56.2% | Papp A→B at 1 h [12]: 213 nm/s | inhibition at 10 µM (CYP2C9): 6.7% | inhibition at 10 µM (CYP3A4): 28.3% | Fu [13]: 0.26% | half-life [14]: 4.3 h | half-life [15]: 4 h | GI50 (786-0): < 2 µM | GI50 (Hs-578T): < 2 µM | F [16]: 72% | AUC [17]: 10.2 µM·h | AUC at 24 h [18]: 90.5 µM·h | Cmax [19]: 12.3 µM | Cmax [20]: 5.8 µM

CC(C)C[C@H](N)C(=O)Nc1ccc(-c2ccnc3[nH]ccc23)cc1
pIC50 [1]: 7.38

CC(C)CC(CN)C(=O)Nc1ccc(-c2ccnc3[nH]ccc23)cc1 (centres undefined)
pIC50 [1]: 6.39

CC(N)C(=O)Nc1ccc(-c2ccnc3[nH]ccc23)cc1 (centres undefined)
pIC50 [1]: 6.60

Cc1cc2c(-c3ccc(NC(=O)[C@@H](N)[C@H](O)C(C)C)cc3C)ccnc2[nH]1
pIC50 [1]: 7.80

Cc1cc2c(-c3ccc(NC(=O)[C@H](N)[C@@H](O)C(C)C)cc3C)ccnc2[nH]1
pIC50 (JVM-3): 5.36 | pIC50 [1]: 8.26

C[C@@H](N)c1ccc(C(=O)Nc2ccnc3[nH]ccc23)cc1 [Y-39983]
pIC50 [1]: 6.82

From ChEMBL document CHEMBL5537207, “Discovery and Characterization of Selective, First-in-Class Inhibitors of Citron Kinase” (J Med Chem, 2024)
